Read-outs that look alike come from different tables or passages of the source.

We go through 3 compounds from patent US20110218212A1, “PREDICTIVE MARKERS FOR EGFR INHIBITORS TREATMENT” (priority 2007, published 2011).

Series [1] relates to NSCLC. The following applies: second line therapy of NSCLC; cited from earlier work.
In series [2] the test system is NSCLC. The following applies: cited from earlier work.
The test system of series [3] is advanced NSCLC. Description: open-label predictive marker identification Phase II study of Tarceva monotherapy. The format is in vivo, human. The conditions noted are these: 264 enrolled patients, 150 mg/day oral. How it is done: Based on the experience from the BR.21 study, benefiting population was defined as either having objective response, or disease stabilization for ≧12 weeks. Clinical and microarray datasets were analyzed according to a pre-defined statistical plan.
The selection of this dose was based on pharmacokinetic parameters, as well as the safety and tolerability profile of this dose observed in Phase I, II and III trials in heavily pre-treated patients with advanced cancer. Drug levels seen in the plasma of patients with cancer receiving the 150 mg/day dose were consistently above the average plasma concentration of 500 ng/ml targeted for clinical efficacy.
This was an open-label, predictive marker identification Phase II study. The study was conducted in approximately 26 sites in about 12 countries. 264 patients with advanced NSCLC following failure of at least one prior chemotherapy regimen were enrolled over a 12 month period. […] Dose reductions were permitted based on tolerability to drug therapy. Clinical and laboratory parameters were assessed to evaluate disease control and toxicity. Treatment continued until disease progression, unacceptable toxicity or death.
The RECIST (Uni-dimensional Tumour Measurement) criteria were used to evaluate response. […]
A regular status check every 3 months was performed either by a patient's visit to the clinic or by telephone. All deaths were recorded. […]

In series [4] the test system is NSCLC. The conditions noted are these: single agent, patients for whom standard therapy for advanced disease has failed, versus placebo; cited from earlier work.
The conditions of series [5]: patients with cancer, 150 mg/day dose; compared with average plasma concentration targeted for clinical efficacy; cited from earlier work.

In the case of `Nc1nc2[nH]cc(CCc3ccc(C(=O)N[C@@H](CCC(=O)O)C(=O)O)cc3)c2c(=O)[nH]1` [pemetrexed], in series [1], the “efficacy compared with docetaxel” value was “clinically equivalent efficacy” and the “side effects compared with docetaxel” value is listed as “significantly fewer side effects”.

With `CC(=O)O[C@@]12CO[C@@H]1C[C@H](O)[C@@]1(C)C(=O)[C@H](O)C3=C(C)[C@@H](OC(=O)[C@H](O)[C@@H](NC(=O)OC(C)(C)C)c4ccccc4)C[C@@](O)([C@@H](OC(=O)c4ccccc4)[C@H]21)C3(C)C` [docetaxel], the survival entry is reported as “improved survival” in series [2] (second line after cisplatin-based first-line regimens failed, all ages, ECOG performance status 0, 1 or 2) and “no prolongation of survival” in series [2] (third-line treatment or beyond).

As to `C#Cc1cccc(Nc2ncnc3cc(OCCOC)c(OCCOC)cc23)c1` [Erlotinib], in series [3], the median overall survival was 7.6 (CI 7-9) months and the median progression-free survival is 11.3 (CI 8-12) weeks. The “survival of NSCLC patients” value in series [4] is “significantly prolongs and improves the survival”. The “drug levels in plasma” value in series [5] was over 500 ng/mL.
